{"source": "patent US20060041022A1", "about": "“Treatment of amyotrophic lateral sclerosis with nimesulide” (priority 2002, published 2006)", "key": {"[1]": {"conditions": "for effect on weight: SOD1 or wild type mice, nimesulide diet vs normal diet, weighed weekly", "method": "(§1) Mice Studies were performed on 8 week old female mice overexpressing mutated human superoxide dismutase (codon 93 glycine→alanine G93A (TgN[SOD1-G93A]1Gur(Gurney et al., 1994, Science 264(5166):1772-1775) Jackson Laboratory, Bar Harbor, Me.; “SDO1 mice”) and their wild type littermates. Mice were housed on a 12 hour day/light cycle and (beginning at 45 d of age) allowed ad libitum access to either nimesulide (NMS)-supplemented (19 g/10 kg) chow, delivering ˜[…] per day to the animal, or, as a control, plain NIH-07 formula cold press chow processed into identical ½ inch pellets (Zeigler Bros Inc, Garners, Pa.). Genotyping was conducted at 21 days of age as described in Gurney et al., 1994, Science 264(5166):1772-1775.\nHealth/Neurologic Status. To assess health status mice were weighed weekly and examined for changes in lacrimation/salivation, palpebral closure, ear twitch and pupillary responses, whisker orienting, postural and righting reflexes and Body Condition Score (BCS) (Ullman-Cullere 1999). Finally, a general pathological examination was conducted at time of sacrifice."}, "[2]": {"system": "4.8 kDa protein (also 5.3 and 5.7 kDa proteins) in spinal cord of SOD1 mice", "method": "as §1\n(§2) Pathology examination. To evaluate molecular changes during the period of therapeutic efficacy of NMS, a sub group of mice were sacrificed by cervical dislocation 95-105 d of age. Blood, brain and lumbar spinal cord samples were then rapidly harvested and prepared for analysis."}, "Prostaglandin E2": {"system": "Prostaglandin E2", "conditions": "SOD1 (or WT) mice, prophylactic nimesulide in the diet, FIG. 4B", "method": "as §1, §2\nNimesulide and Prostaglandin E2. […] Prostaglandin-E2 expression in the left caudal hemisphere of the brain (including substantia nigra, and motor cortex) was measured by immuno-assay (Cayman Ann Arbor, Mich.), which was performed as follows. […]"}, "SOD1 mutant mice [3]": {"system": "SOD1 mutant mice", "method": "as §1\n(§3) Rotarod and Grid Walking Tests. To assess balance, coordination and muscle strength mice were tested on the accelerating rotarod (7650 Ugo Basile Biol. Res. App., Italy) and grid walking tests. […] For the grid walking test, animals were placed into the distal end of a walled chamber (15 cm W×60 cm L, 20 cm high walls and a wire mesh bottom) suspended 1 meter above the floor. The number of foot misses (entire paw and portion of limb pokes through the wire mesh) while crossing a distance of 60 cm was recorded."}, "SOD1 mutant mice [4]": {"system": "SOD1 mutant mice", "method": "as §1, §3", "remark": "listed apart in the source"}, "[5]": {"conditions": "geriatric patients, periods greater than two years; cited from earlier work"}, "in vivo": {"experiment": "in vivo", "conditions": "for Kp: female, mouse, brain (cerebral cortex parenchyma) relative to serum, oral", "method": "as §1, §2\nNimesulide and Prostaglandin E2. […] Prostaglandin-E2 expression in the left caudal hemisphere of the brain (including substantia nigra, and motor cortex) was measured by immuno-assay (Cayman Ann Arbor, Mich.), which was performed as follows. Briefly, pulverized brain tissue stored in liquid N2 was homogenized in 0.1M phosphate-buffered saline (containing 1 mM EDTA and 10 μM indomethacin), mixed with an equal volume of ethanol, and centrifuged. The supernatant was diluted with 50 mM acetic buffer and purified through an affinity column (Cayman). The column was equilibrated with column buffer (0.1M phosphate-buffered saline, 7.7 mM NaN3, 0.5 M […]) followed by UltraPure water, the supernatant was then eluted from the 4 ml column by adding the elution solution and allowing it to pass through the packing material. The eluate was then evaporated and re-dissolved in enzyme-linked immunoassay buffer, applied to a 96-well plate pre-coated with goat anti-mouse IgG and incubated with PGE2 monoclonal antibody and (recovery tracer) for 18 hr at 4° C. […]"}, "[6]": {"conditions": "SOD1 mice on NMS diet, control diet mean onset at 108 days"}}, "note": "Where two headings read alike, the source gives them in different places.", "data": [{"smiles": "CS(=O)(=O)Nc1ccc([N+](=O)[O-])cc1Oc1ccccc1", "note": "[nimesulide, 4-nitro-2-phenoxymethanesulfonanilide]", "values": [{"measurement": "effect on weight", "setting": "[1]", "result": "No detectable difference"}, {"measurement": "effect on weight", "setting": "[1]; listed as NMS", "result": "no effect"}, {"measurement": "health/neurologic tests", "setting": "[1]; all groups, SOD1 groups showed decreased BCS and impaired reflexes after hind limb paralysis", "result": "unremarkable"}, {"measurement": "level of approximately 4.8 kDa protein (negatively charged at pH 9) in spinal cord", "setting": "[2]; SOD1 mice with NMS treatment, prior to onset of motor impairment, FIGS. 3A and B", "result": "regulated back to control levels"}, {"measurement": "levels of approximately 5.3 and 5.7 kDa proteins", "setting": "[2]; SOD1 mice, lumbar spinal cord, proteins increase with disease progression", "result": "decrease"}, {"measurement": "PG-E2 content", "setting": "Prostaglandin E2", "result": "decreased"}, {"measurement": "onset of impairment relative to untreated counterparts", "setting": "SOD1 mutant mice [3]; NMS-treated SOD1 mice, rotarod and grid walking tests", "result": "significant delay"}, {"measurement": "age until which motor skill integrity was exhibited", "setting": "SOD1 mutant mice [3]; [6]", "result": "120 days of age"}, {"measurement": "delay in the onset of motor impairment", "setting": "SOD1 mutant mice [3]; SOD1 mice, nimesulide-supplemented chow vs control diet, n=6, P<0.05, FIG. 1", "result": 10, "unit": "days"}, {"measurement": "age until which motor skill integrity was exhibited", "setting": "SOD1 mutant mice [4]; [6]", "result": "124 days of age"}, {"measurement": "motor ability maintained beyond SOD1 mice fed control diet", "setting": "SOD1 mutant mice [4]; SOD1 mice, nimesulide diet, n=6, P<0.05 on days 113, 115, 122, 124, FIG. 2", "result": 10, "unit": "days"}, {"measurement": "tolerability", "setting": "[5]", "result": "well tolerated"}, {"measurement": "nimesulide concentration in serum", "setting": "in vivo; delivery through feeding, 2-3 months treatment, at onset of bilateral hind-limb paralysis, FIG. 4A", "result": "approximately 30 μM"}, {"measurement": "Kp", "setting": "in vivo; TgN[SOD1-G93A]1Gur (SOD1-G93A transgenic)", "result": "~0.1"}, {"measurement": "Kp", "setting": "in vivo", "result": 0.1}]}]}
